In one test the target is T1, Cox-2 (Homo sapiens, UniProt P35354).
T1 construct: active only after incubation of human whole blood with LPS, which induces COX-2; endogenous in cells; host or cells: fresh heparinized human whole blood from volunteers, incubated with LPS
T1 sequence (P35354 18-604): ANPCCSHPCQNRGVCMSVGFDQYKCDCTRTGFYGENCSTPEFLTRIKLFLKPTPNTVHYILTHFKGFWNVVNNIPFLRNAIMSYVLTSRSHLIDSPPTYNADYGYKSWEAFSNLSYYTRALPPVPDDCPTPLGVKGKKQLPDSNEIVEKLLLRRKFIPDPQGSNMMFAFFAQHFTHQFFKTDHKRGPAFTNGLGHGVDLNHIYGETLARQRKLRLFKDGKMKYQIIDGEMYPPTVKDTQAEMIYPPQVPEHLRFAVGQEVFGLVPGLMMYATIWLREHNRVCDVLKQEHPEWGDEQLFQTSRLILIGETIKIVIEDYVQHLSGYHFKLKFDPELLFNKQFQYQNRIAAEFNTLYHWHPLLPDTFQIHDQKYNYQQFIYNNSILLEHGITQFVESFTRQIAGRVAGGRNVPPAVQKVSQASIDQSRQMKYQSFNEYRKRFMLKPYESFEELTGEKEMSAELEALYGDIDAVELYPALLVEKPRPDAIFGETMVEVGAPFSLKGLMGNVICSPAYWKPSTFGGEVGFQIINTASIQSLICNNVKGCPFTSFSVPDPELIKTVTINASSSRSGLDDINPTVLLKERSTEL
Put plainly: Human whole blood assay, COX-2 (LPS-induced PGE2 production). The format is cell-based. The note with it: for Selectivity Ratio: Cox-1 U937 IC50 / Cox-2 Whole Blood IC50; for IC50: human whole blood, LPS-induced PGE2, 24 hours at 37° C. The source says:
As well, platelets in whole blood contain a large amount of the COX-1 enzyme. Immediately following blood clotting, platelets are activated through a thrombin-mediated mechanism. This reaction results in the production of thromboxane B2 (TxB2) via activation of COX-1. Thus, the effect of test compounds on TxB2 levels following blood clotting can be examined and used as an index for COX-1 activity. Therefore, the degree of selectivity by the test compound can be determined by measuring the levels of PGE2 after LPS induction (COX-2) and TxB2 following blood clotting (COX-1) in the same assay.
A. COX-2 (LPS-induced PGE2 production)
Fresh blood is collected in heparinized tubes by venipuncture from both male and female volunteers. The subjects have no apparent inflammatory conditions and have not taken any NSAIDs for at least 7 days prior to blood collection. Plasma is immediately obtained from a 2 mL blood aliquot to use as blank (basal levels of PGE2). The remaining blood is incubated with LPS (100 μg/ml final concentration, Sigma Chem, #L-2630 from E. coli; diluted in 0.1% BSA (Phosphate buffered saline) for 5 minutes at room temperature. Five hundred μL aliquots of blood are incubated with either 2μL of vehicle (DMSO) or 2 μL of a test compound at final concentrations varying from […] to 30μM for 24 hours at 37° C. At the end of the incubation, the blood is centrifuged at 12,000×g for 5 minutes to obtain plasma. A 100μL aliquot of plasma is mixed with 400 μL of methanol for protein precipitation. The supernatant is obtained and is assayed for PGE2 using a radioimmunoassay kit (Amersham, RPA#530) after conversion of PGE2 to its methyl oximate derivative according to the manufacturer's procedure. […]

Test [1] concerns carrageenan-induced paw edema in rats. Put plainly: Rat paw edema assay (carrageenan). The note with it: po, 1 hr before carrageenan, paw volume 3 hr after. Format: in vivo, Male Sprague-Dawley rats. The method, then:
Male Sprague-Dawley rats (150-200 g) are fasted overnight and are given, po, either vehicle (1% methocel or 5% Tween 80) or a test compound. One hr later, a line is drawn using a permanent marker at the level above the ankle in one hind paw to define the area of the paw to be monitored. The paw volume (V0) is measured using a plethysmometer (Ugo-Basile, Italy) based on the principle of water displacement. The animals are then injected subplantarly with 50 μt of 1% carrageenan solution in saline (FMC Corp, Maine) into the paw using an insulin syringe with a 25-gauge needle (i.e. 500 μg carrageenan per paw). Three hr later, the paw volume (V3) is measured and the increases in paw volume (V3 -V0) are calculated. The animals are sacrificed by CO2 asphyxiation and the absence or presence of stomach lesions scored. Data is compared with the vehicle-control values and percent inhibition calculated. All treatment groups are coded to eliminate observer bias.
A general note: Carrageenan injected into the paw causes an acute inflammation.

Another test addresses T2, Cox-1 (Homo sapiens, UniProt P23219).
T2 construct: human U-937 cells (which specifically express COX-1); endogenous in cells; host or cells: human U-937 cells (whole cells or their microsomes)
Put plainly: Cox-1 U937 (PGE2 synthesis). The format is cell-based. The protocol:
Compounds are tested as inhibitors of cyclooxygenase activity in whole cell cyclooxygenase assays. Both of these assays measure prostaglandin E2 synthesis in response to AA, using a radioimmunoassay. Cells used for these assays are human osteosarcoma 143 cells (which specifically express COX-2) and human U-937 cells (which specifically express COX-1). […] For cyclooxygenase assays, osteosarcoma cells are cultured in 1 mL of media in 24-well multidishes (Nunclon) until confluent (1-2 ×10^5 cells/well). U-937 cells are grown in spinner flasks and resuspended to a final density of 1.5×10^6 cells/mL in 24well multidishes (Nunclon). Following washing and resuspension of osteosarcoma and U-937 cells in 1 mL of HBSS, 1 μL of a DMSO solution of test compound or DMSO vehicle is added, and samples gently mixed. All assays are performed in triplicate. […] AA (peroxide-free, Cayman Chemical) is prepared as a 10 mM stock solution in ethanol and further diluted 10-fold in HBSS. […] Control samples are incubated with ethanol vehicle instead of AA. Samples are again gently mixed and incubated for a further 10 min. at 37° C. For osteosarcoma cells, reactions are then stopped by the addition of 100 μL of 1N HCl, with mixing and by the rapid removal of the solution from cell monolayers. For U-937 cells, reactions are stopped by the addition of 100 μL of 1N HCl, with mixing. Samples are then neutralized by the addition of 100 μL of 1N NaOH and PGE2 levels measured by radioimmunoassay. Assay of COX-1 Activity from U937 cell microsomes U 937 cells are pelleted by centrifugation at 500×g for 5 min and washed once with phosphate-buffered saline and repelleted. Cells are resuspended in homogenization buffer consisting of 0.1M Tris-HCl, pH 7.4, 10 mM EDTA, 2 μg/ml leupeptin, 2 μg/ml soybean trypsin inhibitor, 2 μg/ml aprotinin and 1 mM phenyl methyl sulfonyl fluoride. The cell suspension is sonicated 4 times for 10 sec and is centrifuged at 10,000×g for 10 min at 4° C. The supernatant is centrifuged at 100,000×g for 1 hr at 4° C. The 100,000×g microsomal pellet is resuspended in 0.1M Tris-HCl, pH 7.4, 10 mM EDTA to approximately 7 mg protein/ml and stored at -80° C. […] Assays are performed in duplicate in a final volume of 250 μl. Initially, 5 μl of DMSO vehicle or drug in DMSO are added to 20 μl of 0.1M Tris-HCl buffer, pH 7.4 containing 10 mM EDTA in wells of a 96-deepwell polypropylene titre plate. 200 μl of the microsomal preparation are then added and pre-incubated for 15 min at room temperature before addition of 25 μl of […] arachidonic acid in 0.1M Tris-HCl and 10 mM EDTA, pH 7.4. Samples are incubated for 40 min at room temperature and the reaction is stopped by the addition of 25 μl of 1N HCl. Samples are neutralized with 25 μl of 1N NaOH prior to quantitation of PGE2 content by radioimmunoassay (Dupont-NEN or Amersham assay kits). Cyclooxygenase activity is defined as the difference between PGE2 levels in samples incubated in the presence of arachidonic acid and ethanol vehicle. Compounds of the present invention are inhibitors of COX-2 and are thereby useful in the treatment of COX-2 mediated diseases as enumerated above. The activities of the compounds against cyclooxygenase may be seen in the representative results shown below. In the assay, inhibition is determined by measuring the amount of prostaglandin E2 (PGE2) synthesized in the presence of AA, COX-1 or COX-2 and a putative inhibitor. […]

T2 sequence (P23219 24-599): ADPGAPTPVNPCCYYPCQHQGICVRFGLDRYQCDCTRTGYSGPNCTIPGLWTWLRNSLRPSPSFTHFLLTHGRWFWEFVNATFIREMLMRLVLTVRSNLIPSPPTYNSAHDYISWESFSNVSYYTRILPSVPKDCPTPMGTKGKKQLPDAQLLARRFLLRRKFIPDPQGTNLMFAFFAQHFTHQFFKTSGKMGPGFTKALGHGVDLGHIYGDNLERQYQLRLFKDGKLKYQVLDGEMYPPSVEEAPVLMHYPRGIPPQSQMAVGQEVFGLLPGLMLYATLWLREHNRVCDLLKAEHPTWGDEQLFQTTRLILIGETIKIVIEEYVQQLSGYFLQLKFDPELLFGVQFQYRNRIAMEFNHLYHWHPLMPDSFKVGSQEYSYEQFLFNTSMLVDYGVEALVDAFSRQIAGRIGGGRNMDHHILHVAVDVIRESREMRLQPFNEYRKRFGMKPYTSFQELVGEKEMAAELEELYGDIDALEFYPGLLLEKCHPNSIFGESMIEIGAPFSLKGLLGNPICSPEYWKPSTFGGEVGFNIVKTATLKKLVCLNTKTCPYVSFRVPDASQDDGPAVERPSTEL

By IC50 is commonly meant the point on the concentration scale where inhibition reaches its midpoint. Read a low IC50 as greater potency in that assay. As a reminder, the ED50 is the midpoint of the dose-response relation. Consider `CS(=O)(=O)c1ccc(C2=C(c3ccc(F)cc3)C(=O)CC2)cc1` [A], for which, on Cox-2, the “Selectivity Ratio” value is 5 and the IC50 is 0.09 µM. Besides, the ED50 in test [1] came out at 3 mg/kg.

In the case of `CS(=O)(=O)c1ccc(C2=C(c3ccccc3)C(=O)CC2)cc1` [B], on Cox-2, the “Selectivity Ratio” value is 10 and 0.19 µM corresponded to half-maximal inhibition (IC50). This compound returned an IC50 at Cox-1 of 1.9 µM. The compound further displayed an ED50 in test [1] of 10 mg/kg.

With `CS(=O)(=O)c1ccc(C2=C(c3ccc4cccnc4c3)C(=O)OC2)cc1` [C], the “Selectivity Ratio” value at Cox-2 is reported as 1. Also, the half-maximal inhibitory concentration (IC50) on Cox-2 stood at 0.59 µM; at Cox-1 it was 0.6 µM.

As for `CS(=O)(=O)c1ccc(C2=C(c3cccnc3)C(=O)CC2)cc1` [Example 1, 3-(4-(Methylsulfonyl)phenyl)-2-(3-pyridinyl)-2-cyclopenten-1-one], on Cox-2, the “Selectivity Ratio” value is 52 and the IC50 was 0.58 µM. In addition, on Cox-1, half-maximal inhibition (IC50) required 30 µM. Further, the 50% effect level in test [1] (ED50) was put at a dose of 1.7 mg/kg.

As for `CS(=O)(=O)c1ccc(C2=C(c3cncc(Cl)c3)C(=O)CC2)cc1` [Example 2, 2-(5-Chloropyridin-3-yl)-3-(4-(methylsulfonyl)phenyl)-2-cyclopenten-1-one], the IC50 at Cox-1 was > 100 µM.

As for `CS(=O)(=O)c1ccc(C2=C(c3ccc(Cl)cn3)C(=O)CC2)cc1` [Example 10, 2-(5-Chloro-2-pyridinyl)-3-(4-(methylsulfonyl)phenyl)-2-cyclopenten-1-one], on Cox-2, the “Selectivity Ratio” value is listed as 78 and the IC50 amounted to 0.46 µM. The compound also showed an IC50 at Cox-1 of 36 µM. Also, the ED50 in test [1] turned out to be 2.5 mg/kg.

The values above are taken from patent US5922742A, “Pyridinyl-2-cyclopenten-1-ones as selective cyclooxygenase-2 inhibitors” (Merck Frosst Canada, priority 1997, dated 1999).
